Assay: Franz cell skin delivery of hexylresorcinol (HPLC)
Format: in vitro ADME
Conditions: Franz cells, n=4, FIG. 3
Excerpt: Wash Franz cells with ethanol 70%, water and receptor solution (1×PBS, phosphate buffered saline).
Measure skin thickness and electrical resistance
Mount the tissue on Franz cells (n=4).
Once equilibrated, make sure there isn't excess moisture on the surface of the tissue (SC) by dabbing the skin surface with Kimwipes.
Carefully remove the backing on the film and place it on the donor area with a light pressure (5 times tap on skin surface); the adhesive side is in touch with skin.
Mount the donor chamber and leave it overnight
Next morning (After 16 h time point), take a sample (300 uL) (Oh), replace with fresh 1×PBS.
Add 100 uL 1×PBS to the donor chamber, let it sit for 30 sec, remove it using a plastic pipet moving around the edge of the donor. Repeat this cycle 5 times. Pool these 1×PBS solution and analyze by HPLC
Remove the donor chamber with the tissue still mounted on the Franz cells. Use a cotton swab to take out all the remained liquid on skin. Extract drug from this swab by shaking at 100 rpm overnight in 2 mL ethanol: Water (50:50 v/v).
Put the donor chamber back. After every 2 hours (2,4,6 h), take sample (300 uL) and replace with fresh receptor solution.
At 22 h, remove the donor chamber, remove skin from cells, put skin on sheets of paper and do tape stripping with 2 tapes to remove the excessive drug on skin surface. Put these 2 tapes in a well in 6-well plate for extraction. […]

SMILES: CCCCCCCC/C=C\CCCCCCCC(=O)OCC(O)CO (stereo not shown) [Monumuls, glycerol oleate]
- delivery of the hexylresorcinol compared to Example 16C (no emulsifier): greatly enhanced
